Data from publication PMC8134483 (Scientific Reports, 2021).
“Also recorded” adds a separate entry of the source. Read-outs that look alike come from different tables or passages of the source.

Columns and labels:
[1] = molecular target: T1, hCB1R (Homo sapiens, UniProt P21554); assay: biochemical; format: binding; settings: for CB1R [^3H]CP55,940 Emin: bottom of the concentration–response curve, mean ± SEM; for CB1R versus CB2R selectivity, receptor affinity: CB1R vs CB2R [^3H]CP55,940 binding
T1 construct: expressed in transfected cells; host or cells: CHO-K1
T1 sequence (P21554 whole entry): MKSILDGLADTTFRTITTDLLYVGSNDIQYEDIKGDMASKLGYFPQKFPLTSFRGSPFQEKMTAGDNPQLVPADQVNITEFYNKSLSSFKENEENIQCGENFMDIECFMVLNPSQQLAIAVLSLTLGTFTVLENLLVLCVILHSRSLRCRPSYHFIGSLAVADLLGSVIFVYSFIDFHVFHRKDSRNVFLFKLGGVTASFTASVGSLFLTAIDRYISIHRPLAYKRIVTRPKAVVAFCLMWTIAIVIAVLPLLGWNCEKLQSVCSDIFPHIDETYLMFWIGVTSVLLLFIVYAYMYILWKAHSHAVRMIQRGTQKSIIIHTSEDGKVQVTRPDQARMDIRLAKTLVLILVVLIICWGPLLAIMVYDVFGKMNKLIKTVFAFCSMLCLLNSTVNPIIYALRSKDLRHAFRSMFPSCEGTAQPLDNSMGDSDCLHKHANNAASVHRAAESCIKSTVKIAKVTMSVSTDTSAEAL

[2] = molecular target: T1, hCB1R; assay: cell-based; format: cell-based; settings: for EC50: CHO hCB1R, 10 µM FSK, 90 min, value with 95% CI, read-out: CB1R cAMP Inhibition EC50; for Emax: read-out: CB1R cAMP Inhibition Emax; for CB1R-dependent inhibition of FSK-stimulated cAMP, activity in words: relative to CP55940
[3] = molecular target: T1, hCB1R; assay: cell-based; format: cell-based; settings: for CB1R versus CB2R selectivity, βarrestin2 recruitment: CB1R vs CB2R; for EC50: CHO hCB1R, 90 min, value with 95% CI, read-out: CB1R βarrestin2 recruitment EC50; for Emax: read-out: CB1R βarrestin2 recruitment Emax; for βarrestin2 recruitment to CB1R, activity in words: relative to CP55940
[4] = molecular target: T2, hCB2R (Homo sapiens, UniProt P34972); assay: [^3H]CP55,940 competition (radioligand displacement) binding to CB2R; settings: for CB2R [^3H]CP55,940 Emin: bottom of the concentration–response curve, mean ± SEM
T2 construct: host or cells: CHO-K1 (PathHunter)
T2 sequence (P34972 whole entry): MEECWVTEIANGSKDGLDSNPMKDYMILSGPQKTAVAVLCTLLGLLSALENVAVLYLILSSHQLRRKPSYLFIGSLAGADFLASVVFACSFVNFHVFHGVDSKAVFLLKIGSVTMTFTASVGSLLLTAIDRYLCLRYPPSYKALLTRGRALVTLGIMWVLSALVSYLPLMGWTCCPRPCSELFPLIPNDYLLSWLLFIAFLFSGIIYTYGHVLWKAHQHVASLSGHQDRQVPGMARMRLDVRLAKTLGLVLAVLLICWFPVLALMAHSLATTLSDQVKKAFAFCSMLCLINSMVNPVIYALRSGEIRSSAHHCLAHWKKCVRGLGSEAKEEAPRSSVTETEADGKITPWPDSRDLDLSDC

[5] = molecular target: T2, hCB2R; assay: HitHunter inhibition of FSK-stimulated cAMP, CB2R; format: cell-based
[6] = molecular target: T2, hCB2R; assay: PathHunter βarrestin2 recruitment, CB2R; format: cell-based; settings: for βarrestin2 recruitment to CB2R, activity in words: relative to CP55,940
[7] = molecular target: T2, hCB2R; assay: CB2R bias analysis (operational model, cAMP inhibition vs βarrestin2); format: cell-based; settings: CP55,940 as reference agonist; >0 cAMP bias, <0 βarrestin2 bias
Description: Estimates of Ki, EC50, Emin, and Emax were determined using non-linear regression with variable slope (four parameters) (GraphPad, Prism, v. 8.0). […] One-way analysis of variance (ANOVA), followed by Tukey’s post-hoc test, was used for statistical analyses (p < 0.05 determined to be significant); and Bartlett’s test was used to confirm homogeneity of variance (GraphPad).

Compound | Ki [1] | CB1R [^3H]CP55,940 Emin [1] | EC50 [2] | Emax [2] | CB1R versus CB2R selectivity, βarrestin2 recruitment [3] | EC50 [3] | Emax [3] | Affinity for CB2R compared with CP55,940, in words [4] | Ki [4] | CB2R [^3H]CP55,940 Emin [4] | EC50 [5] | Emax [5] | EC50 [6] | Emax [6] | βarrestin2 recruitment to CB2R, activity in words [6] | CB2R bias between cAMP inhibition and βarrestin2 recruitment, ∆∆LogR (cAMP—βarr2), in words [7] | CB1R versus CB2R selectivity, receptor affinity [1] | CB1R versus CB2R selectivity, cAMP inhibition potency ([2]; CB1R vs CB2R) | βarrestin2 recruitment to CB1R, activity in words [3] | other results
COC(=O)[C@H](Cc1ccccc1)NC(=O)c1cn(CCCCCF)c2ccccc12 [5-fluoro MPP-PICA] | 1200 nM | 59 ± 18 % | 6.4 nM | 92 ± 6.8% | minimally active at CB1R but agonists at CB2R | > 10000 nM | 170 ± 9.8% | significantly less affinity | 540 nM | 89 ± 6.3 % | 12 nM | 110 ± 13% | 630 nM | 82 ± 1.9% | not different with regard to potency relative to the reference agonist CP55,940, and produced supramaximal EMax responses | did not display a bias |  |  |  | Affinity for CB1R compared with CP55,940, in words [1]: significantly less affinity
N#CCCCCn1cc(C(=O)c2cccc3ccccc23)c2ccccc21 [AM 2232] | 0.31 nM | 66 ± 3.6 % | 190 nM | 100 ± 9.3% |  | > 10000 nM | 68 ± 1.6% | significantly less affinity | 600 nM | 73 ± 6.2 % | 1.7 nM | 86 ± 1.9% | 130 nM | 130 ± 19% | greater potency and produced supramaximal EMax responses | significant bias toward the inhibition of cAMP | greater affinity at CB1R relative to CB2R | more potent at CB2R relative to CB1R |  | CB1R-dependent inhibition of FSK-stimulated cAMP, activity in words [2]: significantly lower potency relative to CP55940, but retained full (i.e., 100%) efficacy
O=C(c1ccc(Cl)c2ccccc12)c1cn(CCCCCF)c2ccccc12 [Cl 2201] | 0.09 nM | 76 ± 2.8 % | 2.6 nM | 89 ± 3.9% |  | > 10000 nM | 16 ± 1% |  | 26 nM | 66 ± 2.5 % | 1 nM | 110 ± 8.4% | 120 nM | 17 ± 1.1% |  | significant bias toward the inhibition of cAMP | greater affinity at CB1R relative to CB2R |  | Inactive at βarrestin2 | 
CCCCCn1c2ccccc2c2cc(C(=O)c3cccc4ccccc34)ccc21 [EG 018] |  | 68 ± 6.1 % |  | 104 ± 18% |  |  | 5.2 ± 0.54% | significantly greater affinity | 1.9 nM | 53 ± 4.0 % |  | 85 ± 17% |  | 10 ± 1.9% |  | significant bias toward the inhibition of cAMP |  |  | Inactive at βarrestin2 | CB1R-dependent inhibition of FSK-stimulated cAMP, activity in words [2]: significantly lower potency relative to CP55940, but retained full (i.e., 100%) efficacy; EC50 ([5]; CHO hCB2R, 10 µM FSK, 90 min, value with 95% CI, read-out: CB2R cAMP Inhibition EC50): 51 nM; EC50 ([6]; CHO hCB2R, 90 min, value with 95% CI, read-out: CB2R βarrestin2 recruitment EC50): 770 nM
O=C(Nc1cccc2ccccc12)c1cn(Cc2ccc(F)cc2)c2ccccc12 [FDU-NNEI] | 14 nM | 41 ± 2.8% | 1 nM | 96 ± 8.1% |  | > 10000 nM | 49 ± 8.2% |  | 8.8 nM | 85 ± 8.1 % | 0.01 nM | 103 ± 7.1% | 1000 nM | 25 ± 1.3% |  | significant bias toward the inhibition of cAMP | greater affinity at CB1R relative to CB2R |  |  | CB1R versus CB2R selectivity, [^3H]CP55,940 displaced ([1]; CB1R vs CB2R): displaced more [^3H]CP55,940 at CB1R relative to CB2R
CCCCCn1cc(C(=O)c2cccc3ccccc23)cc1-c1ccccc1 [JWH 145] | 110 nM | 69 ± 7.6 % | 0.03 nM | 82 ± 9.3% |  | > 10000 nM | 27 ± 9% | significantly less affinity | 860 nM | 70 ± 6.1 % | 61 nM | 86 ± 17% | 190 nM | 15 ± 1.7% |  | significant bias toward the inhibition of cAMP |  | more potent at CB1R relative to CB2R |  | 
CCCCCn1cc(C(=O)c2ccc(CCC)c3ccccc23)c2ccccc21 [JWH 182] | 0.77 nM | 17 ± 2.2% | 24 nM | 78 ± 9.4% | inactive at CB2R but an agonist at CB1R | 1600 nM | 110 ± 9.2% |  | 6.2 nM | 21 ± 1.7 % | 25 nM | 120 ± 11% | > 10000 nM | 13 ± 1.8% | inactive in βarrestin2; also recorded: Inactive at βarrestin2 | obligate cAMP-biased ligands |  |  | equipotent, but produced supramaximal EMax responses | CB1R versus CB2R selectivity, cAMP inhibition efficacy ([2]; CB1R vs CB2R): greater efficacy at CB2R than CB1R
Cc1ccc(C(=O)c2cn(CCCCCCl)c3ccccc23)c2ccccc12 [MAM2201 N-(5-chloropentyl) analog] | 10 nM | 5.3 ± 3.0% | 2.8 nM | 98 ± 8.7% |  | > 10000 nM | 17 ± 2.7% | significantly less affinity | > 10000 nM | 40 ± 3.8 % | 580 nM | 120 ± 25% | > 10000 nM | 5.5 ± 1.9% | inactive in βarrestin2 | obligate cAMP-biased ligands | greater affinity at CB1R relative to CB2R | more potent at CB1R relative to CB2R | Inactive at βarrestin2 | βarrestin2 recruitment to CB2R, activity in words ([6]; listed as MAM-2201 N-(5-chloropentyl) analog): Inactive at βarrestin2
CC(C)C(NC(=O)c1nn(Cc2cccc(F)c2)c2ccccc12)C(N)=O (centres unmarked) [meta-AB-FUBINACA] | 16 nM | 30 ± 2.9 % | 5.7 nM | 91 ± 12% | minimally active at CB1R but agonists at CB2R | > 10000 nM | 22 ± 6.9% | significantly greater affinity | 0.63 nM | 89 ± 6.3 % | 5.4 nM | 86 ± 13% | 280 nM | 130 ± 3.7% | not different with regard to potency relative to the reference agonist CP55,940, and produced supramaximal EMax responses | did not display a bias |  |  | Inactive at βarrestin2 | 
